Entries after “also recorded” stand apart in the source; their conditions may differ.
Columns and labels:
[1] = tested on: wild-type sympathetic neurons; assay: Survival of NGF-deprived (TFD) wild-type sympathetic neurons; assay type: cell-based, mouse; conditions: for protection from TFD-induced death (survival): anti-NGF, BAF 50 μM, DEVD-FMK 10 μM; for protection from NGF withdrawal (survival): anti-NGF plus antisense oligonucleotides, scored daily for three days
Description: (§1) Sympathetic neuron cultures were prepared from 1-day-old wild-type and caspase-2−/− mouse pups (Bergeron et al. 1998). Cultures were grown in 24-well collagen-coated dishes for survival experiments and in 6-well collagen-coated dishes for RNA and protein extraction in RPMI 1640 medium plus 10% horse serum with mouse NGF (100 ng/ml). One day following plating, uridine and 5-fluorodeoxyuridine (10 μM each) were added to the cultures and left for three days to eliminate non-neuronal cells (less than 1% non-neuronal cells remain after 3 days). For survival experiments, on the sixth day following plating, NGF was removed by washing the cultures three times with RPMI 1640 medium plus 10% horse serum, followed by the addition of medium containing anti-mouse NGF (1:200, Sigma). Caspase inhibitors (Enzyme Systems Products) were added as indicated. Each culture was scored, as previously described (Troy et al., 1997), for numbers of living, phase-bright neurons present in the same field at various times. Three replicate cultures were assessed for each condition and data are normalized to numbers of neurons present in each culture at the time of NGF deprivation and reported as mean±SEM. For RNA and protein extraction on the sixth day following plating, RNA and protein were extracted using the Trizol reagent according to the manufacturer's protocol.

[2] = tested on: caspase-2-null sympathetic neurons; assay: Survival of NGF-deprived (TFD) caspase-2-null sympathetic neurons; assay type: cell-based, mouse; conditions: caspase-2-null neurons; for protection from TFD-induced death (survival): anti-NGF, BAF 50 μM, DEVD-FMK 10 μM; for protection from NGF withdrawal (survival): anti-NGF plus antisense oligonucleotides, scored daily for three days
Description: as §1

MIAP3 = assay: Western blotting of MIAP3 after V-AMIAP3 treatment of PC12 cells; assay type: cell-based; conditions: within 5 hours
Description: PC12 cells were treated with V-AMIAP3 (240 nM) for 6 hours. Cells lysates containing equal amounts of protein were subjected to Western blotting using the corresponding antisera. Actin staining confirmed equal loading. These are representative blots. Similar results were obtained in 2 independent experiments.
Postnatal day 1 mouse brains were harvested in sample buffer. For antisense down-regulation studies, PC12 cells, grown as previously described, were treated with various antisense constructs for 5 hours and harvested in sample buffer. Equal amounts of protein were separated by 15% PAGE, transferred to nitrocellulose and immunostained as described (Troy et al, 2000). Anti-caspase-9 (MBL) was used at 1:1000, anti-APAF-1 (StressGen) was used at 1:1000, anti-Smac was used at 1:2000, anti-XIAP (StressGen) was used at 1:1000, anti-RAIDD (StressGen) was used at 1:500 and anti-actin (Sigma) was used at 1:200. Visualization was with ECL, using goat-anti-rabbit peroxidase at 1:1000. The relative intensities of the protein bands were quantified using Scion Image 1.55 software (NIH).

| Compound | protection from TFD-induced death (survival) [1] | protection from TFD-induced death (survival) [2] | protection from NGF withdrawal (survival) [1] | protection from NGF withdrawal (survival) [2] | down-regulation of MIAP3 (MIAP3) [%] |
| --- | --- | --- | --- | --- | --- |
| COC(=O)CC(NC(=O)OC(C)(C)C)C(=O)CF (stereo not drawn) [BAF] | protects; also recorded: rescued | protects; also recorded: rescued | – | – | – |
| COC(=O)CC[C@H](NC(=O)[C@H](CC(=O)OC)NC(=O)OCc1ccccc1)C(=O)N[C@H](C(=O)N[C@@H](CC(=O)OC)C(=O)CF)C(C)C [DEVD-FMK] | provided protection only for caspase-2-null neurons; also recorded: only the caspase-2-null neurons were rescued | provided protection; also recorded: rescued | – | – | – |
| CTGCCGGTCCGCCTCGTCCAT (chemistry not given here) [V-ACasp9, PENETRATIN1™-linked antisense oligonucleotide to caspase-9] | – | – | no protection | protected | – |
| GTTAAAAGTCATCTTCTCTGG (chemistry not given here) [V-AMIAP3, PENETRATIN1™-linked antisense oligonucleotide to MIAP3] | – | – | – | – | 70 |
| GTTGTTGTCCATGGTCACTTT (chemistry not given here) [V-ACasp3, PENETRATIN1™-linked antisense oligonucleotide to caspase-3] | – | – | no protection | protected | – |

Reference: patent US20040254136A1, “Antisense oligonucleotides and related methods for regulating cell death” (priority 2001, published 2004)
